Test results as given in patent US20240199882A1, “THIENYL-DIBENZOAZEPINES AND THEIR DERIVATIVES AS DONORS FOR XANTHENE-BASED SHORT-WAVE INFRARED (SWIR) DYES” (Mississippi State University, priority 2022, published 2024).

Tests used:
[1] = Absorbance of DSPE-PEG encapsulated and co-encapsulated dyes; format: physicochemical; conditions: co-encapsulated in DSPE-PEG (rNP-NO) versus separate
From the text: The SCR-NO and IR-1061 were encapsulated using DSPE-PEG (a common phospholipids-polymer conjugate) to give NP-SCR-NO and NP-IR-1061, respectively. […] However, when the components were co-encapsulated (rNP-NO, ratiometric NP for NO), there was observed a favorable ˜100 nm red-shift of the SCR-NO λabs into the SWIR region (FIG. 3A). The corresponding change for IR-1061 was minimal (1 nm).

[2] = Photophysical properties of the dyes in dichloromethane; format: physicochemical; conditions: for QY / Stokes Shift / ε / λabs / λem: in dichloromethane (DCM)
From the text: The quantum yield (QY) of the dyes decreased as the absorption wavelength increased, which is common to these dyes.

Row | red-shift / change of λabs [1] [nm] | absorption maxima [2] | PA brightness value (EC×(1−QY)) ([2]; calculated value) [M⁻¹ cm⁻¹] | QY [2] [%] | Stokes Shift [2] | ε [2] | λabs [2] [nm] | λem [2] [nm] | Compound
1 | 1 | – | – | – | – | – | – | – | ClC1=C(/C=C/c2cc(-c3ccccc3)[s+]c(-c3ccccc3)c2)CCC/C1=C/C=C1C=C(c2ccccc2)SC(c2ccccc2)=C1.F[B-](F)(F)F [IR-1061]
2 | – | 840 | 82800 | 0.31 | 110 | 1.20 (M^−1cm^−1) × 10^5 | 840 | 950 | CCOC(=O)c1ccccc1C1=c2cc/c(=C3/C=CC(=[N+]4c5ccccc5C=Cc5ccccc54)S3)cc2Oc2cc(-c3ccc(N4c5ccccc5C=Cc5ccccc54)s3)ccc21 [SCR-1]
3 | – | 950 | – | 0.036 | 150 | 1.24 (M^−1cm^−1) × 10^5 | 950 | 1100 | CCOC(=O)c1ccccc1C1=c2cc/c(=c3/cc4c(s3)=CC(=[N+]3c5ccccc5C=Cc5ccccc53)S4)cc2Oc2cc(-c3cc4sc(N5c6ccccc6C=Cc6ccccc65)cc4s3)ccc21 [SCR-2]
4 | – | 1040 | – | 0.016 | 220 | 0.80 (M^−1cm^−1) × 10^5 | 1040 | 1260 | CCOC(=O)c1ccccc1C1=c2cc/c(=c3/cc/c(=C4\C=CC(=[N+]5c6ccccc6C=Cc6ccccc65)S4)s3)cc2Oc2cc(-c3ccc(-c4ccc(N5c6ccccc6C=Cc6ccccc65)s4)s3)ccc21 [SCR-3]
